Results from patent US7153685B2 (The Board of Trustees of the University of Illinois, priority 2002, dated 2006).

How the values were obtained:
[1] = tested on: mutant and chimeric estrogen receptors
ER 2 = ER 2 (Homo sapiens, UniProt P03372, E203W/G215R/G400V/Q214A); settings: ATL2/PAL-LUC, 10 nM ligand
Method: (§3) HepG2 human hepatoma cells were maintained in a humidified 5% CO2 incubator at 37° C. in Dulbecco's Modified Eagle's Medium (DMEM; Sigma; St. Louis, Mo.) supplemented with 10 % charcoal-dextran-stripped fetal bovine serum (CD-FBS; Atlanta Biologicals, Inc; Atlanta, Ga.), 50,000 U/l of penicillin, and 50 mg/liter streptomycin (Life Technologies, Inc.). MCF-7 cells were routinely maintained in DMEM/Nutrient Mixture F-12 (DMEM/F12) supplemented with 10% heat-inactived FBS, 50,000 U/l of penicillin, and 50 mg/l streptomycin. CHO-S cells were maintained in DMEM/F12 supplemented with 10% heat-inactivated FBS (CD-FBS when ERs were being expressed) or 10% CD-new born calf serum (CD-NBCS, when reporter activity by different ligands were measured), 29.2 mg/l L-glutamine (Sigma), and 50,000 U/l of penicillin and 50 mg/l streptomycin.
Transient transfections in HepG2 cells was accomplished using calcium phosphate co-precipitation (Ausubel et al., 1987). Briefly, cells were plated in 12-well microplates at a density of 1×10^5 cells/well. The next day, the medium was replaced, and 2–6 hours later, precipitated calcium phosphate:DNA co-crystals were added. […] Activity was determined using the dual luciferase assay protocol according to the manufacturer's directions (Promega) on a Monolight 2010 luminometer (Analytical Luminescence, San Diego, Calif.)

N-79 [2] = target: T1, N-79 (Homo sapiens, UniProt P03372, E203W/G400V/H216G/Q214A); settings: CHO-S cells, 10 nM OHT
From the text: (§1) These fragments were digested with KpnI and BamHI and then purified from agarose gels. […] To create C-129, this ER fragment was digested with XbaI and KpnI and then cloned together with the DNA fragment containing 129 amino acids of VP16 into 5.9 kb vector generated by digestion of CMV-hER with XbaI and BamHI. The same strategy was adopted to create C-79 using the DNA fragment containing 79 amino acids of VP16. Therefore, the expression of these chimeras is driven by the same CMV promoter as that of ER-3M. […] The amplified PCR product was digested with NcoI and NotI. […] This fragment and the NcoI/NotI PCR fragment were then inserted together into the 4.3 kb vector, pGL3-ATL8/PAL-LUC, which was created by digesting ATL8/PAL-LUC completely with NcoI and partially with XbaI so that the luciferase gene was replaced by N-79.
(§2) A second plasmid also containing 8 copes of pS2 PAL drives expression of the reporter gene (FIG. 11, ATL8/PAL-LUC).

wild type hERα = target: T2, wild type hERα (Homo sapiens, UniProt P03372, G400V); experiment: Ligand-dependent luciferase reporter transactivation in transfected HepG2 cells
T2 sequence (P03372 1-595 G400V): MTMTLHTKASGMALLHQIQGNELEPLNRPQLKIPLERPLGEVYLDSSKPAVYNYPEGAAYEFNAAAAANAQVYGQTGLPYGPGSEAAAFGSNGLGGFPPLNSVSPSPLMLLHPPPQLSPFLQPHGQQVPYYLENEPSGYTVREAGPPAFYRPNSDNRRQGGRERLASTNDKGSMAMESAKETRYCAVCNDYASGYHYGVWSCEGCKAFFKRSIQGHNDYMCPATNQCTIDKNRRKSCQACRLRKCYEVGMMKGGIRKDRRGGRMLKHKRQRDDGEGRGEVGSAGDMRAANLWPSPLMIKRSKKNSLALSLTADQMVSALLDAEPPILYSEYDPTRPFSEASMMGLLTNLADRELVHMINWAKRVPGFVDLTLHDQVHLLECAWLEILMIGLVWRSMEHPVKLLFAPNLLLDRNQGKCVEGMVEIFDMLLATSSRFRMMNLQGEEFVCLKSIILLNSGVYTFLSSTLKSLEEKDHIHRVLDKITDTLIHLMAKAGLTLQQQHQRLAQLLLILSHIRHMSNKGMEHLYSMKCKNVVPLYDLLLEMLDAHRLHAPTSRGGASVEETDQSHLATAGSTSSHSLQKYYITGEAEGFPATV
Method: as §3
Transient transfections in HepG2 cells was accomplished using calcium phosphate co-precipitation (Ausubel et al., 1987). Briefly, cells were plated in 12-well microplates at a density of 1×10^5 cells/well. The next day, the medium was replaced, and 2–6 hours later, precipitated calcium phosphate:DNA co-crystals were added. After 12–16 hours, the cells were shocked for 3 minutes with 20% glycerol in Tris-buffered saline, pH 7.4. Fresh medium and (if any) hormones were added. For MCF-7 and 231 cells, transient transfection was carried out using the Tfx™-20 reagent (Promega; Madison, Wis.) according to the manufacturer's direction with minor changes. Briefly, 1×10^5 cells were plated in each well of 12-well microplates one day before transfection. A 1:3 ratio of DNA to lipid was used. The DMEM/F12 medium without serum was used as carrier for the DNA-lipid mixture. After 1 hour incubation with the DNA-lipid-DMEM/F12 at 37° C., the cells were transferred to fresh DMEM/F12 supplemented with 10% CD-FBS, 50,000 U/I of penicillin, 50 mg/l streptomycin and hormones. Transfection on CHO—S cells was described as above for the preparation of ERs extraction except the medium contained 10% CD-NBCS. The cells subjected to either transfection method were harvested 48 hours post-transfection. Reporter assays were performed by lysing the cells in situ with 250 μl of passive lysis buffer (Promega). Activity was determined using the dual luciferase assay protocol according to the manufacturer's directions (Promega) on a Monolight 2010 luminometer (Analytical Luminescence, San Diego, Calif.)
Transient transfections of HepG2 cells were carried out and luciferase activity determined.

N-79 [3] = target: T1, N-79; experiment: Autoregulated expression system (ATL8/PAL-N-79 + ATL8/PAL-LUC) in HepG2 cells; assay type: cell-based; design: expressed in transfected cells; host or cells: HepG2 (A20); 231 human breast cancer cells (A21); CHO-S (A22); settings: HepG2 human hepatoblastoma cells, 10 nM OHT
From the text: as §1, §2

[4] = tested on: wild type ER and the ER mutants
Method: HepG2 human hepatoma cells were maintained in a humidified 5% CO2 incubator at 37° C. in Dulbecco's Modified Eagle's Medium (DMEM; Sigma; St. Louis, Mo.) supplemented with 10 % charcoal-dextran-stripped fetal bovine serum (CD-FBS; Atlanta Biologicals, Inc; Atlanta, Ga.), 50,000 U/l of penicillin, and 50 mg/liter streptomycin (Life Technologies, Inc.). MCF-7 cells were routinely maintained in DMEM/Nutrient Mixture F-12 (DMEM/F12) supplemented with 10% heat-inactived FBS, 50,000 U/l of penicillin, and 50 mg/l streptomycin.
Briefly, cells were plated in 12-well microplates at a density of 1×10^5 cells/well. The next day, the medium was replaced, and 2–6 hours later, precipitated calcium phosphate:DNA co-crystals were added. After 12–16 hours, the cells were shocked for 3 minutes with 20% glycerol in Tris-buffered saline, pH 7.4. Fresh medium and (if any) hormones were added. For MCF-7 and 231 cells, transient transfection was carried out using the Tfx™-20 reagent (Promega; Madison, Wis.) according to the manufacturer's direction with minor changes. Briefly, 1×10^5 cells were plated in each well of 12-well microplates one day before transfection. A 1:3 ratio of DNA to lipid was used. The DMEM/F12 medium without serum was used as carrier for the DNA-lipid mixture. After 1 hour incubation with the DNA-lipid-DMEM/F12 at 37° C., the cells were transferred to fresh DMEM/F12 supplemented with 10% CD-FBS, 50,000 U/I of penicillin, 50 mg/l streptomycin and hormones. Transfection on CHO—S cells was described as above for the preparation of ERs extraction except the medium contained 10% CD-NBCS. The cells subjected to either transfection method were harvested 48 hours post-transfection. Reporter assays were performed by lysing the cells in situ with 250 μl of passive lysis buffer (Promega).
The data represent the mean±S.E. of three independent transfections.

ER3M = ER3M (Homo sapiens, UniProt P03372, E203W/G400V/H216G/Q214A)
N-79 [5] = target: T1, N-79; experiment: Autoregulated expression system (ATL8/PAL-N-79 + ATL8/PAL-LUC) in 231 human breast cancer cells; assay type: cell-based; design: expressed in transfected cells; host or cells: HepG2 (A20); 231 human breast cancer cells (A21); CHO-S (A22); settings: 10 nM OHT
From the text: as §1, §2

ER mutant 4.3 = ER mutant 4.3 (Homo sapiens, UniProt P03372, E203W/G215R/G400V/H216P/N217T/Q214V); settings: 10 μM ligand
Method: HepG2 human hepatoma cells were maintained in a humidified 5% CO2 incubator at 37° C. in Dulbecco's Modified Eagle's Medium (DMEM; Sigma; St. Louis, Mo.) supplemented with 10 % charcoal-dextran-stripped fetal bovine serum (CD-FBS; Atlanta Biologicals, Inc; Atlanta, Ga.), 50,000 U/l of penicillin, and 50 mg/liter streptomycin (Life Technologies, Inc.).
Transient transfections in HepG2 cells was accomplished using calcium phosphate co-precipitation (Ausubel et al., 1987). Briefly, cells were plated in 12-well microplates at a density of 1×10^5 cells/well. The next day, the medium was replaced, and 2–6 hours later, precipitated calcium phosphate:DNA co-crystals were added. After 12–16 hours, the cells were shocked for 3 minutes with 20% glycerol in Tris-buffered saline, pH 7.4. Fresh medium and (if any) hormones were added. For MCF-7 and 231 cells, transient transfection was carried out using the Tfx™-20 reagent (Promega; Madison, Wis.) according to the manufacturer's direction with minor changes. Briefly, 1×10^5 cells were plated in each well of 12-well microplates one day before transfection. A 1:3 ratio of DNA to lipid was used. […] Activity was determined using the dual luciferase assay protocol according to the manufacturer's directions (Promega) on a Monolight 2010 luminometer (Analytical Luminescence, San Diego, Calif.) […]

ER 4.3 = ER 4.3 (Homo sapiens, UniProt P03372, E203W/G215R/G400V/H216P/N217T/Q214V)
Method: as §3
Transient transfections in HepG2 cells was accomplished using calcium phosphate co-precipitation (Ausubel et al., 1987). Briefly, cells were plated in 12-well microplates at a density of 1×10^5 cells/well. The next day, the medium was replaced, and 2–6 hours later, precipitated calcium phosphate:DNA co-crystals were added. […] Activity was determined using the dual luciferase assay protocol according to the manufacturer's directions (Promega) on a Monolight 2010 luminometer (Analytical Luminescence, San Diego, Calif.) […]

[6] = ATL8/PAL-LUC, 2.5 ng expression plasmid, 10 nM OHT

ER3M, sequence (P03372 whole entry E203W/Q214A/H216G/G400V): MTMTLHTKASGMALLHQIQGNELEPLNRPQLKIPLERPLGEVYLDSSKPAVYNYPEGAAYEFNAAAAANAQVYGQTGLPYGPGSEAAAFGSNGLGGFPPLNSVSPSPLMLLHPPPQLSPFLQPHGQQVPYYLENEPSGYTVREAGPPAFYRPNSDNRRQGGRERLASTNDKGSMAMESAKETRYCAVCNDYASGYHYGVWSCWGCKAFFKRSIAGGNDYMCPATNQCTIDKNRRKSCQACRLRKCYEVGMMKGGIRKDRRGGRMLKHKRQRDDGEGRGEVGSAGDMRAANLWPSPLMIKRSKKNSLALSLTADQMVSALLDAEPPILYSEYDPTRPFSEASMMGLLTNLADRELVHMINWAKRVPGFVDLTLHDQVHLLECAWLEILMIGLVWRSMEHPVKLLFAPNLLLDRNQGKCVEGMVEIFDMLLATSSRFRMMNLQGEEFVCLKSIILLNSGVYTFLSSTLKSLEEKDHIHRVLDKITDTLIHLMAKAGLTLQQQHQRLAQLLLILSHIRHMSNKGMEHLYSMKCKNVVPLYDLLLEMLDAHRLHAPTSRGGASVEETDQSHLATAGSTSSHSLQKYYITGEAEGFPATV
T1 sequence (P03372 with tags, fused parts or gaps E203W/Q214A/H216G/G400V): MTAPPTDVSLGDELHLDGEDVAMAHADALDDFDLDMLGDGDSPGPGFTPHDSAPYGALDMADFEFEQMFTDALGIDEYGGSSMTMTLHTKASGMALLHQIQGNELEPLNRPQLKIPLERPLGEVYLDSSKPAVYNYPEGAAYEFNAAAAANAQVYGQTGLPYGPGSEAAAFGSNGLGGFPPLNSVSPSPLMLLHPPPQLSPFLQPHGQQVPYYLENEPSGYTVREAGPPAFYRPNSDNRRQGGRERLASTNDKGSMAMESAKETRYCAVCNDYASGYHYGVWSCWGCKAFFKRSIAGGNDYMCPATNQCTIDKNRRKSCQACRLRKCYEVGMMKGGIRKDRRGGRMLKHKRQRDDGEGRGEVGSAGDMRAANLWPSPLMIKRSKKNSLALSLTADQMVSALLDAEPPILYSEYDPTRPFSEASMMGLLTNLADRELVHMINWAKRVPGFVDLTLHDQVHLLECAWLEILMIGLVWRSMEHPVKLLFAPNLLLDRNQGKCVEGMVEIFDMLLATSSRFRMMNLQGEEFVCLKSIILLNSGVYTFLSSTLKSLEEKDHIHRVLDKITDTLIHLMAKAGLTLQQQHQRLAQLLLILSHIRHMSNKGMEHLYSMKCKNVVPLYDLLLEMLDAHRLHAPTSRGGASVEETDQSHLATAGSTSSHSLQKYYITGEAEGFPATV
ER 4.3, sequence (P03372 whole entry E203W/Q214V/G215R/H216P/N217T/G400V): as the sequence (P03372 whole entry E203W/Q214A/H216G/G400V) above, with A214V, G215R, G216P, N217T counted along it
ER mutant 4.3, sequence (P03372 whole entry E203W/Q214V/G215R/H216P/N217T/G400V): as the sequence (P03372 whole entry E203W/Q214A/H216G/G400V) above, with A214V, G215R, G216P, N217T counted along it
ER 2, sequence (P03372 whole entry E203W/Q214A/G215R/G400V): as the sequence (P03372 whole entry E203W/Q214A/H216G/G400V) above, with G215R, G216H counted along it

O=C(c1ccc(OCCN2CCCCC2)cc1)c1c(-c2ccc(O)cc2)sc2cc(O)ccc12 [Raloxifene]
transcription activation when bound to mutant and chimeric estrogen receptors [1]: fail to activate transcription

4-hydroxytamoxifen [OHT]
transactivation by OHT compared with MOX (ER 2): equal to that seen with MOX | induction upon addition of OHT (N-79 [2]): 28 fold | agonism on ATL8/cERE-LUC, OHT compared with moxestrol (wild type hERα; 10 nM ligand): weaker agonist than moxestrol | transactivation of ATL8/PAL-LUC, OHT compared with MOX (wild type hERα; 10 nM ligand): higher with OHT than with MOX | transactivation level on two copies of pS2 PAL (wild type hERα; ATL2/PAL-LUC, 10 nM ligand): undetectable | agonist activity when bound to the cERE (wild type hERα; ATL2/cERE-LUC, 10 nM OHT): weak agonist activity | induction of luciferase activity from ATL8/PAL (wild type hERα; ATL8/PAL-LUC, 5 ng expression plasmid, 10 nM OHT): 52 fold | increase in luciferase activity upon addition of OHT (N-79 [3]): 1027 fold | agonist character of OHT when pS2 PAL supplied the ERE ([4]; ATL2/PAL-LUC, 10 nM ligand, ER mutants): full agonist | transactivation in response to OHT, percent of that seen with MOX ([4]; ATL2/pS2 ERE-LUC, 10 nM ligand): about 30% | OHT transactivation with four copies of pS2 PAL compared with MOX ([4]; ATL4/PAL-LUC, 10 nM ligand): same level of transactivation as MOX | OHT activity, percent of that seen with MOX ([4]; ATL4/cERE-LUC, wild type hERα and ERs 3M and 4.3, 10 nM ligand): 20–25% | OHT-mediated activation of transcription on different versions of pS2 PAL reporters ([4]; summary, pS2 PAL reporters and the ER mutants): 70–1000 fold | transactivation by OHT compared with MOX (ER3M; ATL2/PAL-LUC, 10 nM ligand): exceeded that seen with MOX | increase in reporter gene expression by OHT (ER3M; [6]): 117 fold | maximal level of transactivation (ER3M; ATL8/PAL-LUC, tamoxifen compared with OHT): similar | increase in luciferase activity upon addition of OHT (N-79 [5]): 813 fold | transactivation by OHT, percent of that seen with E2 (ER mutant 4.3; ATL4/PAL-LUC): 45% | OHT-mediated transactivation, percent of that observed with estradiol (E2) (ER mutant 4.3; ATL4/cERE-LUC): 13% | transactivation by OHT compared with MOX (ER 4.3; ATL2/PAL-LUC, 10 nM ligand): equal to that seen with MOX | increase in reporter gene expression by OHT (ER 4.3; [6]): 172 fold
